From publication PMC10330135 (Chemistry (Weinheim an der Bergstrasse, Germany), 2023)

How the values were obtained:
Type in all cases: biochemical
PtmJ = target: T1, PtmJ (Streptomyces pactum, UniProt A8R0J5); assay: enzymatic glycosylation
T1 sequence (A8R0J5 1-318): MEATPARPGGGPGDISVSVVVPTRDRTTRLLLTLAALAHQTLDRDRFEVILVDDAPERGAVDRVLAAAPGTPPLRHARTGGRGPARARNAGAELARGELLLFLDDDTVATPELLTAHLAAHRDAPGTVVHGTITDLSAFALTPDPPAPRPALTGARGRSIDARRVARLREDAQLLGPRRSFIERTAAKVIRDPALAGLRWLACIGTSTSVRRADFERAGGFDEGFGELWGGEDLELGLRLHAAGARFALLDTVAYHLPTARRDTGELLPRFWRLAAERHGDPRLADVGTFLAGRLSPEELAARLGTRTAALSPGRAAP

PtmN = target: T2, PtmN (Streptomyces pactum, UniProt A8R0J9); assay: mass spectrometry of product; conditions: NAD+; cofactor recycling as for GlcNAc-3AAP
T2 sequence (A8R0J9 1-351): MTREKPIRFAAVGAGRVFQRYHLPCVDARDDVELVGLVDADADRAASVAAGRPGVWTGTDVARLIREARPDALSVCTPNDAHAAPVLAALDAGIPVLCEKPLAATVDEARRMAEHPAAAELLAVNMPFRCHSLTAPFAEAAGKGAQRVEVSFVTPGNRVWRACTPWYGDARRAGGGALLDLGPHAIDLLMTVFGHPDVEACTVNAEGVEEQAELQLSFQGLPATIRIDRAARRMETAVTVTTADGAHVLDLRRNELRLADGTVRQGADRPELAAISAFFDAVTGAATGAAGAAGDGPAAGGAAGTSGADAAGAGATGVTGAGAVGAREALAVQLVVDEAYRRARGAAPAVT

PtmG = target: T3, PtmG (Streptomyces pactum, UniProt A8R0J2); assay: mass spectrometry of substrate consumption; conditions: formed in situ by PtmN, PtmA and PtmB; 10 h with PtmG
T3 sequence (A8R0J2 1-378): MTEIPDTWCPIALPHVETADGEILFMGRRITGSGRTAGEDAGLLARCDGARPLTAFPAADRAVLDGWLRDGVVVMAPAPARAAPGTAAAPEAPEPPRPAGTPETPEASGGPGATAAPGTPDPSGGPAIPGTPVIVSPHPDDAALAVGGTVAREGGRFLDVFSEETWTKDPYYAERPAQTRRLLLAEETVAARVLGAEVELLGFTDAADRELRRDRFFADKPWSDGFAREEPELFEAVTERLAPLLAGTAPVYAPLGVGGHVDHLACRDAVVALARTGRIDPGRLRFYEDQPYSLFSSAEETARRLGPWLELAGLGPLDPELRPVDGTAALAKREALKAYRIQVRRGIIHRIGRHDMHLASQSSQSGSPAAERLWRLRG

CC(=O)NCCSC(=O)c1cccc(N)c1 [3ABA-SNAC]
enzymatic glycosylation; product used in the next reactions (PtmJ): The 3ABA-SNAC was first glycosylated with the glycosyltransferase PtmJ

CC(=O)NCCSC(=O)c1cccc(N[C@@H]2O[C@H](CO)[C@@H](O)[C@H](O)[C@H]2NC(C)=O)c1 [compound 15, GlcNAc-3ABA-SNAC]
mass spectrometry of product (PtmN): reaction of GlcNAc-3ABA-SNAC with PtmN showed an oxidation product

CC(=O)N[C@@H]1[C@@H](NC(N)=O)[C@H](O)[C@@H](CO)O[C@H]1Nc1cccc(C(C)=O)c1 [compound 20, N-carbamoylated GlcNAc-3AAP]
mass spectrometry of substrate consumption (PtmG): after incubation with PtmG, the carbamoylated GlcNAc-3AAP was partially consumed
